The values below are quoted from earlier work in patent US11576929B2, “Composition for inflammatory gastrointestinal disorders” (SUMITOMO SEIKA CHEMICALS CO., LTD., priority 2018, dated 2023).

This data set deals with colitis in rats. Conditions: direct inhalation into rats.

As to `[C-]#[O+]` [CO (gas), carbon monoxide], the colitis entry is recorded as “inhibited colitis”.
